In US7381698B2, “Methods for treatment of acute pancreatitis” (ChiRhoClin, Inc., priority 2003, dated 2008):
Where no end group is shown, it is not given here.

Assays:
[1] = test system: post-ERCP pancreatitis in patients undergoing ERCP; test: Randomized, double-blind, placebo controlled study in ERCP patients: incidence and severity of post-ERCP pancreatitis; assay type: in vivo, human
From the text: Pancreatitis is the most common medically significant complication following Endoscopic Retrograde Cholangio-Pancreatography ([…]) procedures. The symptoms and pathophysiology of post-ERCP pancreatitis and acute pancreatitis are identical, and patients at risk for postERCP pancreatitis or suffering early signs of the condition provide good data for evaluation of therapies for acute pancreatitis. An evaluation of the clinical efficacy of dosages of secretin to treat or prevent the onset of pancreatitis in patients undergoing ERCP is described below.
A total of 979 ERCP patients were randomized, received study drug and were evaluable for efficacy. The demographic profiles of the patients who were randomized and received treatment with study drug by treatment group are summarized in Table 1.
The primary efficacy variable was the overall incidence of post-ERCP pancreatitis.
The difference in the incidence of post-ERCP pancreatitis between the two treatment groups in favor of the sPS treated patients was highly significant. The p-value of 0.0161 was sufficient to allow the study to be discontinued on the basis of the planned interim analysis of approximately 1,000 evaluable patients. The severity of the cases of post-ERCP pancreatitis, which did occur in each treatment group is depicted in Table 4 below.
The frequency of post-ERCP pancreatitis was evaluated in numerous patient sub-populations defined by the types of procedures performed during the ERCP.

patients undergoing ERCP = test: Return to pre-ERCP activity levels and return to work in ERCP patients; assay type: in vivo, human
From the text: Additional secondary efficacy variables assessed were return to baseline (pre-ERCP levels of activity) and the time in days to return of pre-ERCP activity levels. There was a small difference in the percentage of patients reporting return to baseline activity within the follow-up period (2 to 4 days post-ERCP) favoring the placebo group (p=0.0230) (49.78% vs. 42.09%). Interims of the mean number of days required to achieve pre-ERCP activity levels, was 0.6 (±1.0) for the sPS group and 0.7 (±0.9) for the placebo group. An attempt was made to obtain information on return to work. Relatively few data points were able to be collected, however, because a large percentage of patients were not working pre-ERCP (retired, too ill, etc.) among the 185 patients (95 in the sPS group and 90 in the placebo group) providing relevant responses for this variable, 46.32% of sPS patients and 50.00% of placebo patients reported returning to work within the follow-up period.

[2] = number of cases (% of 44 pancreatitis cases), N = 488/44

synthetic porcine secretin (HSDGTFTSELSRLRDSARLQRLLQGLV; not fully specified; ends and bridges not checked; UniProt P63298 33-59, looked up) [SPS, Study drug; abbreviation not defined]
Post-ERCP Pancreatitis Severity Rating (%): Severe [1, 2]: 1 (2.27) % | Post-ERCP Pancreatitis Severity Rating (%): Unknown [1, 2]: 7 (15.91) % | Post-ERCP Pancreatitis Severity Rating (%): Total ([1]; number of cases (% of 44 pancreatitis cases), N = 488/44, overall p 0.6278): 44 (100.0) % | Post-ERCP Pancreatitis Severity Rating (%): Moderate ([1]; number of cases (% of 44 pancreatitis cases), N = 488/44, p 0.117): 9 (20.45) % | Post-ERCP Pancreatitis Severity Rating (%): Minimal ([1]; number of cases (% of 44 pancreatitis cases), N = 488/44, p 0.289): 13 (29.55) % | Post-ERCP Pancreatitis Severity Rating (%): Mild ([1]; number of cases (% of 44 pancreatitis cases), N = 488/44, p 0.590): 14 (31.82) % | Overall Incidence of Post-ERCP Pancreatitis, No (%) ([1]; number of patients (%), N = 488): 444 (90.98) % | Overall Incidence of Post-ERCP Pancreatitis, Yes (%) ([1]; number of patients (%), N = 488, p 0.0161 vs placebo, Fisher Exact Test): 44 (9.02) % | Incidence of Post-ERCP Pancreatitis, No (%) ([1]; sub-population Cannulation of CBD, N = 361): 334 (92.52) % | Incidence of Post-ERCP Pancreatitis, Yes (%) ([1]; sub-population Cannulation of CBD, N = 361, p 0.0010): 27 (7.48) % | Incidence of Post-ERCP Pancreatitis, No (%) ([1]; sub-population Cannulation of Pancreatic Duct, N = 220): 190 (86.36) % | Incidence of Post-ERCP Pancreatitis, Yes (%) ([1]; sub-population Cannulation of Pancreatic Duct, N = 220, p 0.1237): 30 (13.64) % | Incidence of Post-ERCP Pancreatitis, No (%) ([1]; sub-population Manometry of CBD, N = 19): 15 (78.95) % | Incidence of Post-ERCP Pancreatitis, Yes (%) ([1]; sub-population Manometry of CBD, N = 19, p 0.0819): 4 (21.05) % | Incidence of Post-ERCP Pancreatitis, Yes (%) ([1]; sub-population Manometry of CBD, N = 19, p 0.0819, listed as sPS): 21.05% | Incidence of Post-ERCP Pancreatitis, No (%) ([1]; sub-population Manometry of Pancreatic Duct, N = 11): 6 (54.58) % | Incidence of Post-ERCP Pancreatitis, Yes (%) ([1]; sub-population Manometry of Pancreatic Duct, N = 11, p 0.3665): 5 (45.45) % | Incidence of Post-ERCP Pancreatitis, No (%) ([1]; sub-population Sphincterotomy of CBD, N = 140): 133 (95.00) % | Incidence of Post-ERCP Pancreatitis, Yes (%) ([1]; sub-population Sphincterotomy of CBD, N = 140, p 0.0001): 7 (5.00) % | Incidence of Post-ERCP Pancreatitis, No (%) ([1]; sub-population Sphincterotomy of Pancreatic Duct, N = 26): 14 (57.85) % | Incidence of Post-ERCP Pancreatitis, Yes (%) ([1]; sub-population Sphincterotomy of Pancreatic Duct, N = 26, p 0.1666): 12 (46.15) % | Incidence of Post-ERCP Pancreatitis, No (%) ([1]; sub-population Stent Insertion into CBD, N = 108): 105 (97.22) % | Incidence of Post-ERCP Pancreatitis, Yes (%) ([1]; sub-population Stent Insertion into CBD, N = 108, p 0.0856): 3 (2.78) % | Incidence of Post-ERCP Pancreatitis, Yes (%) ([1]; sub-population Stent Insertion into CBD, N = 108, p 0.0856, listed as sPS): 2.78% | Incidence of Post-ERCP Pancreatitis, No (%) ([1]; sub-population Stent Insertion into Pancreatic Duct, N = 23): 18 (78.26) % | Incidence of Post-ERCP Pancreatitis, Yes (%) ([1]; sub-population Stent Insertion into Pancreatic Duct, N = 23, p 1.0000): 5 (21.74) % | Incidence of Post-ERCP Pancreatitis, Yes (%) ([1]; sub-population Stent Insertion into Pancreatic Duct, N = 23, p 1.0000, listed as sPS): 21.7% | Incidence of Post-ERCP Pancreatitis, No (%) ([1]; sub-population Stent Removal from CBD, N = 58): 57 (98.28) % | Incidence of Post-ERCP Pancreatitis, Yes (%) ([1]; sub-population Stent Removal from CBD, N = 58, p 0.6185): 1 (1.72) % | Incidence of Post-ERCP Pancreatitis, No (%) ([1]; sub-population Stent Removal from Pancreatic Duct, N = 17): 15 (88.24) % | Incidence of Post-ERCP Pancreatitis, Yes (%) ([1]; sub-population Stent Removal from Pancreatic Duct, N = 17, p 1.0000): 2 (11.76) % | Incidence of Post-ERCP Pancreatitis, No (%) ([1]; sub-population Stone Extraction (Balloon), N = 55): 51 (92.73) % | Incidence of Post-ERCP Pancreatitis, Yes (%) ([1]; sub-population Stone Extraction (Balloon), N = 55, p 1.0000): 4 (7.27) % | Incidence of Post-ERCP Pancreatitis, No (%) ([1]; sub-population Stone Extraction (Basket), N = 35): 34 (97.14) % | Incidence of Post-ERCP Pancreatitis, Yes (%) ([1]; sub-population Stone Extraction (Basket), N = 35, p 0.2298): 1 (2.86) % | mean number of days required to achieve pre-ERCP activity levels (patients undergoing ERCP; mean (±SD)): 0.6 (±1.0) days | patients reporting returning to work (patients undergoing ERCP; within the follow-up period, 95 patients in the sPS group, not significant): 46.32%
